The results in this text go back to patent US9957274B2, “Indane inhibitors of EED and methods of their use” (AbbVie Inc., priority 2016, dated 2018).

What is called pIC50 is the IC50 on a negative log10 scale, so that one unit is a factor of ten. Low readings indicate a large IC50, high ones a small IC50.

pIC50: −log10 of the molar value. A value given as a limit tells only on which side of the number the result lay.

This assay addresses EED (Homo sapiens, UniProt O75530). Nature of the assay: EED TR-FRET Binding Assay (modified LanthaScreen competition assay). How it is done:
Compounds were tested in a modified LanthaScreen competition assay.
The following buffer was used to set up the binding reactions: 20 mM Tris-HCl pH 7.5, 200 mM NaCl, 0.01% Tween-20, 10 uM DTT (dithiothreitol), and 0.05% BSA (bovine serum albumin), with the DTT and BSA added fresh prior to initiating the binding assay. […] The reactions were then incubated for 1 hour at 25° C. in a humidified chamber prior to detection on the Perkin Elmer Envision plate reader using a Lanthascreen TR-FRET protocol.

Chain of EED (O75530 whole entry): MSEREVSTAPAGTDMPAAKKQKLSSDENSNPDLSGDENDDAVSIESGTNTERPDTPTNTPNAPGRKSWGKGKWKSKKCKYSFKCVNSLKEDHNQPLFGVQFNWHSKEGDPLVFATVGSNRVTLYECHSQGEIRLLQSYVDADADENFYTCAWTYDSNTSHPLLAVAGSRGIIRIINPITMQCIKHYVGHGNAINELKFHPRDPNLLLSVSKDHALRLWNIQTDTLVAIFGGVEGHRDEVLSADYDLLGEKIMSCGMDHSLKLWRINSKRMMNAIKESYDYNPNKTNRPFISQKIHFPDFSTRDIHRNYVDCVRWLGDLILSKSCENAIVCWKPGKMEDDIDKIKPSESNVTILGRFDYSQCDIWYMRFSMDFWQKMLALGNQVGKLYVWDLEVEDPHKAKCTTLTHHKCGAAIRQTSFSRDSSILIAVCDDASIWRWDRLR

As for `CN(C)[C@H]1CN(C2CCc3ccc(F)c(F)c32)C[C@@H]1c1cn(C)c2ccccc12` (stereo partly drawn) [Example 96, (3R,4S)-1-(6,7-difluoro-2,3-dihydro-1H-inden-1-yl)-N,N-dimethyl-4-(1-methyl-1H-indol-3-yl)pyrrolidin-3-amine], the pIC50 is 8.37.
Compound `CN(C)[C@@H]1CN(C2CCc3cccc(F)c32)C[C@H]1c1cn(C)c2c(C(=O)N3CC(F)C3)cccc12` (stereo partly drawn) [Example 104, {3-[(3R,4S)-4-(dimethylamino)-1-(7-fluoro-2,3-dihydro-1H-inden-1-yl)pyrrolidin-3-yl]-1-methyl-1H-indol-7-yl}(3-fluoroazetidin-1-yl)methanone] gave a pIC50 of 7.82.
As for `CN(C)[C@H]1CN([C@@H]2C[C@@H](O)c3cccc(F)c32)C[C@@H]1c1ccc(S(C)(=O)=O)cc1` (mixture of isomers) [Example 16, rac-(1R,3R)-3-{(3R,4S)-3-(dimethylamino)-4-[4-(methanesulfonyl)phenyl]pyrrolidin-1-yl}-4-fluoro-2,3-dihydro-1H-inden-1-ol], the figure is 6.31; as for `Cc1cc([C@H]2CN(C3c4ccccc4CC3O)C[C@@H]2N(C)C)ccc1C#N` (mixture of isomers) [Example 38, rac-4-[(3S,4R)-4-(dimethylamino)-1-(2-hydroxy-2,3-dihydro-1H-inden-1-yl)pyrrolidin-3-yl]-2-methylbenzonitrile], 7.16.
For the compound `CC(=O)N1CCN(c2ccc([C@H]3CN(C4CCc5ccccc54)C[C@@H]3N(C)C)cc2)CC1` (stereo partly drawn) [Example 42, 1-(4-{4-[(3S,4R)-1-(2,3-dihydro-1H-inden-1-yl)-4-(dimethylamino)pyrrolidin-3-yl]phenyl}piperazin-1-yl)ethan-1-one], the pIC50 was less than 4.30.
In turn, `CN(C)[C@H]1CN([C@H]2CCc3ccccc32)C[C@@H]1c1ccc(S(C)(=O)=O)cc1` [Example 9, (3R,4S)-1-[(1S)-2,3-dihydro-1H-inden-1-yl]-4-[4-(methanesulfonyl)phenyl]-N,N-dimethylpyrrolidin-3-amine] showed a pIC50 of 8.00.
`CN(C)[C@H]1CN(C2CCc3cccc(F)c32)C[C@@H]1c1cn(C)c2c(Br)cccc12` (mixture of isomers) [Example 93, rac-(3R,4S)-4-(7-bromo-1-methyl-1H-indol-3-yl)-1-(7-fluoro-2,3-dihydro-1H-inden-1-yl)-N,N-dimethylpyrrolidin-3-amine]: the negative-log IC50 (pIC50) was 8.56.
`CN1CCN(C(=O)c2ccc([C@H]3CN(C4CCc5cccc(F)c54)C[C@@H]3N(C)C)cc2)CC1=O` (mixture of isomers) [Example 51, rac-4-{4-[(3S,4R)-4-(dimethylamino)-1-(7-fluoro-2,3-dihydro-1H-inden-1-yl)pyrrolidin-3-yl]benzoyl}-1-methylpiperazin-2-one] had a pIC50 of 7.91.
`Cc1cc([C@H]2CN(C3CCc4cccc(F)c43)C[C@@H]2N(C)C)ccc1C(=O)O` (mixture of isomers) [Example 36, rac-4-[(3S,4R)-4-(dimethylamino)-1-(7-fluoro-2,3-dihydro-1H-inden-1-yl)pyrrolidin-3-yl]-2-methylbenzoic acid] gave a pIC50 of 7.84.
For the compound `CN(C)[C@H]1CN([C@H]2C[C@H](O)c3cccc(F)c32)C[C@@H]1c1ccc(S(C)(=O)=O)cc1` (mixture of isomers) [Example 18, rac-(1S,3S)-3-{(3R,4S)-3-(dimethylamino)-4-[4-(methanesulfonyl)phenyl]pyrrolidin-1-yl}-4-fluoro-2,3-dihydro-1H-inden-1-ol], the negative-log IC50 (pIC50) was 7.79.
As to `CN(C)[C@@H]1CN([C@H]2CCc3ccccc32)C[C@H]1c1ccc(S(C)(=O)=O)cc1` [Example 10, (3S,4R)-1-[(1S)-2,3-dihydro-1H-inden-1-yl]-4-[4-(methanesulfonyl)phenyl]-N,N-dimethylpyrrolidin-3-amine], the pIC50 was 6.54.
`COC(=O)c1cccc2c([C@H]3CN(C4CCc5cccc(F)c54)C[C@@H]3N(C)C)cn(C)c12` (mixture of isomers) [Example 85, rac-methyl 3-[(3S,4R)-4-(dimethylamino)-1-(7-fluoro-2,3-dihydro-1H-inden-1-yl)pyrrolidin-3-yl]-1-methyl-1H-indole-7-carboxylate] had a pIC50 of 9.25.
The value for `CN(C)[C@@H]1CN(C2CCc3cccc(F)c32)C[C@H]1c1cn(C)c2c(C(=O)O)cccc12` (stereo partly drawn) [Example 81, 3-[(3R,4S)-4-(dimethylamino)-1-(7-fluoro-2,3-dihydro-1H-inden-1-yl)pyrrolidin-3-yl]-1-methyl-1H-indole-7-carboxylic acid] was 7.01; that for `CN(C)[C@@H]1CN(C2CCc3cccc(F)c32)C[C@H]1c1ccc(C(=O)O)cc1` (mixture of isomers) [Example 29, rac-4-[(3R,4S)-4-(dimethylamino)-1-(7-fluoro-2,3-dihydro-1H-inden-1-yl)pyrrolidin-3-yl]benzoic acid] was 7.63.
With `Cc1cccc2c1C(N1C[C@H](c3cn(C)c4ccccc34)[C@@H](N(C)C)C1)CC2` (stereo partly drawn) [Example 100, (3R,4S)-N,N-dimethyl-1-(7-methyl-2,3-dihydro-1H-inden-1-yl)-4-(1-methyl-1H-indol-3-yl)pyrrolidin-3-amine], the pIC50 is 7.23.
Regarding `COC(=O)c1ccc2c([C@@H]3CN(C4CCc5cccc(F)c54)C[C@H]3N(C)C)cn(C)c2c1` (mixture of isomers) [Example 83, rac-methyl 3-[(3R,4S)-4-(dimethylamino)-1-(7-fluoro-2,3-dihydro-1H-inden-1-yl)pyrrolidin-3-yl]-1-methyl-1H-indole-6-carboxylate], the pIC50 was 7.96.
`CC(=O)N1CCN(c2ccc([C@@H]3CN([C@@H]4CCc5cccc(F)c54)C[C@H]3N(C)C)cc2)CC1` [Example 48, 1-[4-(4-{(3R,4S)-4-(dimethylamino)-1-[(1R)-7-fluoro-2,3-dihydro-1H-inden-1-yl]pyrrolidin-3-yl}phenyl)piperazin-1-yl]ethan-1-one] showed a pIC50 of 7.74.
Compound `CN(C)[C@@H]1CN(C2CCc3cccc(F)c32)C[C@H]1c1ccc(N2CCN(C(=O)OC(C)(C)C)CC2)cc1` (stereo partly drawn) [Example 50, tert-butyl 4-{4-[(3R,4S)-4-(dimethylamino)-1-(7-fluoro-2,3-dihydro-1H-inden-1-yl)pyrrolidin-3-yl]phenyl}piperazine-1-carboxylate] gave a pIC50 of 8.94.
The value for `CN(C)[C@@H]1CN([C@@H]2CCc3cccc(F)c32)C[C@H]1C1COc2ccccc21` (mixture of isomers) [Example 139, rac-(3S,4R)-4-(2,3-dihydro-1-benzofuran-3-yl)-1-[(1R)-7-fluoro-2,3-dihydro-1H-inden-1-yl]-N,N-dimethylpyrrolidin-3-amine] was 7.08.
Regarding `COC(=O)c1cccc2c([C@H]3CN(C4CCc5cccc(F)c54)C[C@@H]3N(C)C)cn(C)c12` (stereo partly drawn) [Example 84, methyl 3-[(3S,4R)-4-(dimethylamino)-1-(7-fluoro-2,3-dihydro-1H-inden-1-yl)pyrrolidin-3-yl]-1-methyl-1H-indole-7-carboxylate], the pIC50 is 9.53.
In turn, `CC(=O)N1CCN(C(=O)c2ccc([C@H]3CN(C4CCc5cccc(F)c54)C[C@@H]3N(C)C)cc2)CC1` (mixture of isomers) [Example 55, rac-1-(4-{4-[(3S,4R)-4-(dimethylamino)-1-(7-fluoro-2,3-dihydro-1H-inden-1-yl)pyrrolidin-3-yl]benzoyl}piperazin-1-yl)ethan-1-one] gave a pIC50 of 7.88.
With `CN(C)[C@H]1CN([C@H]2C[C@@H](O)c3cccc(F)c32)C[C@@H]1c1ccc(S(C)(=O)=O)cc1` (mixture of isomers) [Example 34, rac-(1R,3S)-3-{(3R,4S)-3-(dimethylamino)-4-[4-(methanesulfonyl)phenyl]pyrrolidin-1-yl}-4-fluoro-2,3-dihydro-1H-inden-1-ol], the pIC50 was 6.98.
The compound `CN(C)[C@H]1CN([C@@H]2CCc3cccc(F)c32)C[C@@H]1c1cn(C)c2cccnc12` (mixture of isomers) [Example 143, rac-(3R,4S)-1-[(1R)-7-fluoro-2,3-dihydro-1H-inden-1-yl]-N,N-dimethyl-4-(1-methyl-1H-pyrrolo[3,2-b]pyridin-3-yl)pyrrolidin-3-amine] had a pIC50 of 7.71.
The value for `CCS(=O)(=O)N1CCN(C(=O)c2ccc([C@H]3CN(C4CCc5cccc(F)c54)C[C@@H]3N(C)C)cc2)CC1` (mixture of isomers) [Example 57, rac-{4-[(3S,4R)-4-(dimethylamino)-1-(7-fluoro-2,3-dihydro-1H-inden-1-yl)pyrrolidin-3-yl]phenyl}[4-(ethanesulfonyl)piperazin-1-yl]methanone] was 7.91.
`CN(C)[C@H]1CN(C2CCc3cccc(F)c32)C[C@@H]1c1cn(C)c2cc(Br)ccc12` (mixture of isomers) [Example 94, rac-(3R,4S)-4-(6-bromo-1-methyl-1H-indol-3-yl)-1-(7-fluoro-2,3-dihydro-1H-inden-1-yl)-N,N-dimethylpyrrolidin-3-amine] showed a pIC50 of 8.31.
On to `CN(C)[C@H]1CN([C@@H]2CCc3cccc(F)c32)C[C@@H]1C1COc2ccccc21` (mixture of isomers) [Example 142, rac-(3R,4S)-4-(2,3-dihydro-1-benzofuran-3-yl)-1-[(1R)-7-fluoro-2,3-dihydro-1H-inden-1-yl]-N,N-dimethylpyrrolidin-3-amine], for which the pIC50 is 7.59.
The value for `CN(C)[C@H]1CN(C2CCc3cccc(O)c32)C[C@@H]1c1cn(C)c2ccccc12` (stereo partly drawn) [Example 97, 3-[(3R,4S)-3-(dimethylamino)-4-(1-methyl-1H-indol-3-yl)pyrrolidin-1-yl]-2,3-dihydro-1H-inden-4-ol] was 7.47; that for `CC(=O)N1CCN(c2ccc([C@@H]3CN([C@H]4CCc5cccc(F)c54)C[C@H]3N(C)C)cc2)CC1` [Example 47, 1-[4-(4-{(3R,4S)-4-(dimethylamino)-1-[(1S)-7-fluoro-2,3-dihydro-1H-inden-1-yl]pyrrolidin-3-yl}phenyl)piperazin-1-yl]ethan-1-one] was 7.37.
